{"source": "patent US8350079B2", "about": "“Treprostinil formulation” (United Therapeutics Corporation, priority 2008, dated 2013)", "key": {"[1]": {"assay": "Accelerated stability of treprostinil monohydrate at 25, 30 and 40° C. (Lot #01M07033)", "type": "physicochemical", "protocol": "III. Accelerated Stability Data at 30 and 40° C. (Lot #01M07033).\nIn the present experiment, 500 mg Treprostinil monohydrate samples were stored in Nalgene 125 ml, HDPE bottles. The experimental procedure used in this experiment was the same as the described above procedure for lot D-1007-089."}, "[2]": {"assay": "Stability tests of treprostinil forms (dimer formation, room temperature stability)", "type": "physicochemical", "conditions": "room temperature", "protocol": "The anhydrous form of treprostinil (TREPROSTINIL) has been previously described, e.g., in J. Org. Chem. 2004, 69, 1890-1902. […] A larger amount of dimers can form at higher temperatures. However, dimer formation is negligible at 5° C. Therefore, anhydrous treprostinil must be refrigerated for storage and transport. In the past, treprostinil had to be refrigerated and shipped with ice packs to maintain low (2° C.-8° C.) temperatures.\nThe instability of anhydrous treprostinil also imposes challenges to its preparation. To obtain anhydrous treprostinil, wet compound from recrystallization was heated in a vacuum. […] Therefore, heating temperature must be carefully controlled to avoid high heat when drying treprostinil in order to remove all water, otherwise these two dimer impurities will be produced.\nData has been generated to characterize a monohydrate form of treprostinil. […] Treprostinil monohydrate can be stored and shipped with no special handling."}}}
{"smiles": "CCCCC[C@H](O)CC[C@@H]1[C@H]2Cc3cccc(OCC(=O)O)c3C[C@H]2C[C@H]1O", "note": "[TREPROSTINIL Lot# D-1007-089, treprostinil monohydrate]", "values": [{"measurement": "3AU90", "setting": "[1]; 3-Months, 25° C./60% RH", "result": "<0.05", "unit": "%"}, {"measurement": "750W93", "setting": "[1]; 3-Months, 25° C./60% RH", "result": 0.07, "unit": "%"}, {"measurement": "751W93", "setting": "[1]; 3-Months, 25° C./60% RH", "result": "<0.05", "unit": "%"}, {"measurement": "Impurity 1 (RRT: 0.58)", "setting": "[1]; 3-Months, 25° C./60% RH", "result": 0.05, "unit": "%"}, {"measurement": "Total impurities", "setting": "[1]; 3-Months, 25° C./60% RH", "result": 0.4, "unit": "%"}, {"measurement": "UT-15 Assay", "setting": "[1]; 3-Months, 25° C./60% RH", "result": 99.5, "unit": "%"}, {"measurement": "UT-15 Ethyl Ester", "setting": "[1]; 3-Months, 25° C./60% RH", "result": 0.2, "unit": "%"}, {"measurement": "Water, KF", "setting": "[1]; 3-Months, 25° C./60% RH", "result": 4.8, "unit": "%"}, {"measurement": "3AU90", "setting": "[1]; 3-Months, 30° C./65% RH", "result": "<0.05", "unit": "%"}, {"measurement": "750W93", "setting": "[1]; 3-Months, 30° C./65% RH", "result": 0.07, "unit": "%"}, {"measurement": "751W93", "setting": "[1]; 3-Months, 30° C./65% RH", "result": "<0.05", "unit": "%"}, {"measurement": "Impurity 1 (RRT: 0.58)", "setting": "[1]; 3-Months, 30° C./65% RH", "result": 0.05, "unit": "%"}, {"measurement": "Total impurities", "setting": "[1]; 3-Months, 30° C./65% RH", "result": 0.4, "unit": "%"}, {"measurement": "UT-15 Assay", "setting": "[1]; 3-Months, 30° C./65% RH", "result": 99.5, "unit": "%"}, {"measurement": "UT-15 Ethyl Ester", "setting": "[1]; 3-Months, 30° C./65% RH", "result": 0.2, "unit": "%"}, {"measurement": "Water, KF", "setting": "[1]; 3-Months, 30° C./65% RH", "result": 4.8, "unit": "%"}, {"measurement": "3AU90", "setting": "[1]; 3-Months, 40 C./75% RH", "result": "<0.05", "unit": "%"}, {"measurement": "750W93", "setting": "[1]; 3-Months, 40 C./75% RH", "result": 0.08, "unit": "%"}, {"measurement": "751W93", "setting": "[1]; 3-Months, 40 C./75% RH", "result": "<0.05", "unit": "%"}, {"measurement": "Impurity 1 (RRT: 0.58)", "setting": "[1]; 3-Months, 40 C./75% RH", "result": 0.05, "unit": "%"}, {"measurement": "Total impurities", "setting": "[1]; 3-Months, 40 C./75% RH", "result": 0.4, "unit": "%"}, {"measurement": "UT-15 Assay", "setting": "[1]; 3-Months, 40 C./75% RH", "result": 99.4, "unit": "%"}, {"measurement": "UT-15 Ethyl Ester", "setting": "[1]; 3-Months, 40 C./75% RH", "result": 0.2, "unit": "%"}, {"measurement": "Water, KF", "setting": "[1]; 3-Months, 40 C./75% RH", "result": 4.8, "unit": "%"}, {"measurement": "3AU90", "setting": "[1]; 6-Months, 25° C./60% RH", "result": 0.06, "unit": "%"}, {"measurement": "750W93", "setting": "[1]; 6-Months, 25° C./60% RH", "result": 0.07, "unit": "%"}, {"measurement": "751W93", "setting": "[1]; 6-Months, 25° C./60% RH", "result": "<0.05", "unit": "%"}, {"measurement": "Total impurities", "setting": "[1]; 6-Months, 25° C./60% RH", "result": 0.4, "unit": "%"}, {"measurement": "UT-15 Assay", "setting": "[1]; 6-Months, 25° C./60% RH", "result": 99.0, "unit": "%"}, {"measurement": "UT-15 Ethyl Ester", "setting": "[1]; 6-Months, 25° C./60% RH", "result": 0.2, "unit": "%"}, {"measurement": "Water, KF", "setting": "[1]; 6-Months, 25° C./60% RH", "result": 4.7, "unit": "%"}, {"measurement": "3AU90", "setting": "[1]; 6-Months, 30° C./65% RH", "result": 0.06, "unit": "%"}, {"measurement": "750W93", "setting": "[1]; 6-Months, 30° C./65% RH", "result": 0.07, "unit": "%"}, {"measurement": "751W93", "setting": "[1]; 6-Months, 30° C./65% RH", "result": "<0.05", "unit": "%"}, {"measurement": "Total impurities", "setting": "[1]; 6-Months, 30° C./65% RH", "result": 0.4, "unit": "%"}, {"measurement": "UT-15 Assay", "setting": "[1]; 6-Months, 30° C./65% RH", "result": 99.1, "unit": "%"}, {"measurement": "UT-15 Ethyl Ester", "setting": "[1]; 6-Months, 30° C./65% RH", "result": 0.2, "unit": "%"}, {"measurement": "Water, KF", "setting": "[1]; 6-Months, 30° C./65% RH", "result": 4.7, "unit": "%"}, {"measurement": "3AU90", "setting": "[1]; 6-Months, 40 C./75% RH", "result": 0.07, "unit": "%"}, {"measurement": "750W93", "setting": "[1]; 6-Months, 40 C./75% RH", "result": 0.09, "unit": "%"}, {"measurement": "751W93", "setting": "[1]; 6-Months, 40 C./75% RH", "result": 0.05, "unit": "%"}, {"measurement": "Total impurities", "setting": "[1]; 6-Months, 40 C./75% RH", "result": 0.4, "unit": "%"}, {"measurement": "UT-15 Assay", "setting": "[1]; 6-Months, 40 C./75% RH", "result": 99.7, "unit": "%"}, {"measurement": "UT-15 Ethyl Ester", "setting": "[1]; 6-Months, 40 C./75% RH", "result": 0.2, "unit": "%"}, {"measurement": "Water, KF", "setting": "[1]; 6-Months, 40 C./75% RH", "result": 4.7, "unit": "%"}, {"measurement": "3AU90", "setting": "[1]; 12-Months, 25° C./60% RH", "result": "<0.05", "unit": "%"}, {"measurement": "750W93", "setting": "[1]; 12-Months, 25° C./60% RH", "result": 0.08, "unit": "%"}, {"measurement": "751W93", "setting": "[1]; 12-Months, 25° C./60% RH", "result": "<0.05", "unit": "%"}, {"measurement": "Impurity 1 (RRT: 0.58)", "setting": "[1]; 12-Months, 25° C./60% RH", "result": 0.06, "unit": "%"}, {"measurement": "Total impurities", "setting": "[1]; 12-Months, 25° C./60% RH", "result": 0.4, "unit": "%"}, {"measurement": "UT-15 Assay", "setting": "[1]; 12-Months, 25° C./60% RH", "result": 99.8, "unit": "%"}, {"measurement": "UT-15 Ethyl Ester", "setting": "[1]; 12-Months, 25° C./60% RH", "result": 0.2, "unit": "%"}, {"measurement": "Water, KF", "setting": "[1]; 12-Months, 25° C./60% RH", "result": 4.7, "unit": "%"}, {"measurement": "3AU90", "setting": "[1]; 12-Months, 40 C./75% RH", "result": "<0.05", "unit": "%"}, {"measurement": "750W93", "setting": "[1]; 12-Months, 40 C./75% RH", "result": 0.09, "unit": "%"}, {"measurement": "751W93", "setting": "[1]; 12-Months, 40 C./75% RH", "result": 0.05, "unit": "%"}, {"measurement": "Impurity 1 (RRT: 0.58)", "setting": "[1]; 12-Months, 40 C./75% RH", "result": 0.05, "unit": "%"}, {"measurement": "Total impurities", "setting": "[1]; 12-Months, 40 C./75% RH", "result": 0.4, "unit": "%"}, {"measurement": "UT-15 Assay", "setting": "[1]; 12-Months, 40 C./75% RH", "result": 98.6, "unit": "%"}, {"measurement": "UT-15 Ethyl Ester", "setting": "[1]; 12-Months, 40 C./75% RH", "result": 0.2, "unit": "%"}, {"measurement": "Water, KF", "setting": "[1]; 12-Months, 40 C./75% RH", "result": 4.8, "unit": "%"}, {"measurement": "3AU90", "setting": "[1]; Initial", "result": 0.1, "unit": "%"}, {"measurement": "750W93", "setting": "[1]; Initial", "result": 0.08, "unit": "%"}, {"measurement": "751W93", "setting": "[1]; Initial", "result": "<0.05", "unit": "%"}, {"measurement": "Total impurities", "setting": "[1]; Initial", "result": 0.4, "unit": "%"}, {"measurement": "UT-15 Assay", "setting": "[1]; Initial", "result": 98.7, "unit": "%"}, {"measurement": "UT-15 Ethyl Ester", "setting": "[1]; Initial", "result": 0.2, "unit": "%"}, {"measurement": "Water, KF", "setting": "[1]; Initial", "result": 4.5, "unit": "%"}, {"measurement": "Stability at room temperature", "setting": "[2]", "result": "stable at room temperature"}]}
